The record followed here is ChEMBL document CHEMBL5465560, “Selectivity Literature for EUbOPEN Chemogenomic Library” (2024).

For test [1], the target named is Ephrin type-A receptor 2 (Homo sapiens) (UniProt P29317). As to the kind of experiment: Selectivity interaction (Ambit KINOMEscan and KiNATiv profiling in Jurkat cells) EUB0000090b EPHA2. Conditions: at 1 µM. The test is classed as cell-based.
The target in test [2] is T1, Ephrin type-B receptor 1 (Homo sapiens) (UniProt P54762).
T1 sequence (whole entry): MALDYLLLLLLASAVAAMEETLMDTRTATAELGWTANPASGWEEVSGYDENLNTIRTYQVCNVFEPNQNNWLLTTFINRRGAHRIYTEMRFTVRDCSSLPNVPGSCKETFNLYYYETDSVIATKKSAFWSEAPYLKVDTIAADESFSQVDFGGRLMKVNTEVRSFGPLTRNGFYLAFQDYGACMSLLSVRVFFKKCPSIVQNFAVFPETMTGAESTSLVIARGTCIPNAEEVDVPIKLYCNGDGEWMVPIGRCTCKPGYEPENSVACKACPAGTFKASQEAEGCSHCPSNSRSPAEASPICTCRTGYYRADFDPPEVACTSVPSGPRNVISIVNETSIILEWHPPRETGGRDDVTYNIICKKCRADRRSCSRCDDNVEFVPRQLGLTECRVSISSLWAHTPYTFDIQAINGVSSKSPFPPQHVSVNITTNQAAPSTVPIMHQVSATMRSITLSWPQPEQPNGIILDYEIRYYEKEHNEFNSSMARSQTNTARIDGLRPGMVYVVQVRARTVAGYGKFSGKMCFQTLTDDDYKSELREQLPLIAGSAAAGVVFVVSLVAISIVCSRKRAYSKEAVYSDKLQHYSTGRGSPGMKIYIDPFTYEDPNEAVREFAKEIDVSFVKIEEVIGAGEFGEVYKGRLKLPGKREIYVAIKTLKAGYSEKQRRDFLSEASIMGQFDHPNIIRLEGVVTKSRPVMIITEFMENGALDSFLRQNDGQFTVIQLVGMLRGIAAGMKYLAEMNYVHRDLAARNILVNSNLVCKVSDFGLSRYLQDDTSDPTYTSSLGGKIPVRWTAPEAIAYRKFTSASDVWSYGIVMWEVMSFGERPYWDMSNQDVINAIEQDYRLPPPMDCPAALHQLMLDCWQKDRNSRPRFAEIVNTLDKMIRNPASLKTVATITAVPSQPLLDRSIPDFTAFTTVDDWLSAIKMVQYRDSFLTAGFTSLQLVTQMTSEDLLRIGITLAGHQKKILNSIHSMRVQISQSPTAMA
The experiment in a line: Selectivity interaction (Ambit KINOMEscan and KiNATiv profiling in Jurkat cells) EUB0000090b EPHB1. The test is classed as cell-based. Conditions: at 1 µM.

For test [3], the target named is Mitogen-activated protein kinase kinase kinase kinase 1 (Homo sapiens) (UniProt Q92918). The experiment in a line: Selectivity interaction (KinomeScan (DiscoverX)) EUB0000092b MAP4K1. Conditions: at 10 µM.
Sequence of Mitogen-activated protein kinase kinase kinase kinase 1 (Homo sapiens) (Q92918 whole entry, looked up): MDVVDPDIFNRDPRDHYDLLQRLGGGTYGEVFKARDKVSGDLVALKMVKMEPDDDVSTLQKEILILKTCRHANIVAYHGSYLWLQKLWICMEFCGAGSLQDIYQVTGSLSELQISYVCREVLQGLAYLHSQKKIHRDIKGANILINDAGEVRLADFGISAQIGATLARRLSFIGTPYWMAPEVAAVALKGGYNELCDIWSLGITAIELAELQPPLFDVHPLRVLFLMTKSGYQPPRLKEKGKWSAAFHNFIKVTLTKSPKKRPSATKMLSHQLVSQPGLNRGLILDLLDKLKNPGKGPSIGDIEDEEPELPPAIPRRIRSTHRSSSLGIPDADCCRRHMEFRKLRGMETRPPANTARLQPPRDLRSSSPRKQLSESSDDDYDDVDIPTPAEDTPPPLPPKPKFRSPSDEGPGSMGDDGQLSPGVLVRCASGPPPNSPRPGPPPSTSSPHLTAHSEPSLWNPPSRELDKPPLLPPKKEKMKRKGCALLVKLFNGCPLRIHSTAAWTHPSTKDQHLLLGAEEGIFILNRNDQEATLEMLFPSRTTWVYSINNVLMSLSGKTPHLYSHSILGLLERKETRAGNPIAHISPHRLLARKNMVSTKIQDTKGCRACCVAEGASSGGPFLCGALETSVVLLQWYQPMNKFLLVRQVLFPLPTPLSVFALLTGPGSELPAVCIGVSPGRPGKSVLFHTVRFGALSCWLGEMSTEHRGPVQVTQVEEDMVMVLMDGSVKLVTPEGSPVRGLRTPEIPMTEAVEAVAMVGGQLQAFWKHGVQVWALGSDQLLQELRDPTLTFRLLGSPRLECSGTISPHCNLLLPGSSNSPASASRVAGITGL
Test [4] has as its target T2, Serine/threonine-protein kinase D1 (Homo sapiens) (UniProt Q15139).
T2 sequence (whole entry): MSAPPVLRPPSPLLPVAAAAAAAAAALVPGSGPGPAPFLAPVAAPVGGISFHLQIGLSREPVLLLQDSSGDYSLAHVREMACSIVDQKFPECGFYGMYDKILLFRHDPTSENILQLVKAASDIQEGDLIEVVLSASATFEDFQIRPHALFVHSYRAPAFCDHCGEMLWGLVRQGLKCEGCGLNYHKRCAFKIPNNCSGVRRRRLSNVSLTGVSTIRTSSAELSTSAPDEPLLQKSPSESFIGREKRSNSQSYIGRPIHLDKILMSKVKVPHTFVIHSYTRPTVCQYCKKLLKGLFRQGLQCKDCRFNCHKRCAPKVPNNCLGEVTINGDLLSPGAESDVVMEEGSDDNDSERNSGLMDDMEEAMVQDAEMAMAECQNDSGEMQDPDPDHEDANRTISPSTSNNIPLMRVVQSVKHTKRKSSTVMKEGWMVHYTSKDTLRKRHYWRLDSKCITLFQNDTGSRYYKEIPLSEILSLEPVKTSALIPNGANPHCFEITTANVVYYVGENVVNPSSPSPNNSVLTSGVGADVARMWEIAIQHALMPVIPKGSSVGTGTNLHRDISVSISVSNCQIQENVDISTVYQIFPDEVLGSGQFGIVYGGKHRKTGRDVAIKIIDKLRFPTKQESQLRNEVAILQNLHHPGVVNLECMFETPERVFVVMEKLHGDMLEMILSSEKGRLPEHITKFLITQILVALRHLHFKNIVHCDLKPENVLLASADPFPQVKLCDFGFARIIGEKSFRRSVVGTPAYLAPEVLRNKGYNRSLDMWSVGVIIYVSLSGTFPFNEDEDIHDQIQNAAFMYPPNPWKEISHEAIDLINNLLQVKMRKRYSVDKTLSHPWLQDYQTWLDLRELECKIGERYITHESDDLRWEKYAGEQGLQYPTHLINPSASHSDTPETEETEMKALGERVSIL
The experiment in a line: Selectivity interaction (KinomeScan (DiscoverX)) EUB0000695a PRKD1. Conditions: at 100 nM.

Test [5] concerns the target Serine/threonine-protein kinase mTOR (Homo sapiens, UniProt P42345). As to the kind of experiment: Selectivity interaction (KinomeScan (DiscoverX)) EUB0000045b MTOR.
Test [6] deals with Receptor tyrosine-protein kinase erbB-2 (Homo sapiens, UniProt P04626). As to the kind of experiment: Selectivity interaction (Rxn Biology Kinase assay) EUB0001632a ERBB2. Conditions: at 10 µM.
Sequence of Receptor tyrosine-protein kinase erbB-2 (P04626 whole entry): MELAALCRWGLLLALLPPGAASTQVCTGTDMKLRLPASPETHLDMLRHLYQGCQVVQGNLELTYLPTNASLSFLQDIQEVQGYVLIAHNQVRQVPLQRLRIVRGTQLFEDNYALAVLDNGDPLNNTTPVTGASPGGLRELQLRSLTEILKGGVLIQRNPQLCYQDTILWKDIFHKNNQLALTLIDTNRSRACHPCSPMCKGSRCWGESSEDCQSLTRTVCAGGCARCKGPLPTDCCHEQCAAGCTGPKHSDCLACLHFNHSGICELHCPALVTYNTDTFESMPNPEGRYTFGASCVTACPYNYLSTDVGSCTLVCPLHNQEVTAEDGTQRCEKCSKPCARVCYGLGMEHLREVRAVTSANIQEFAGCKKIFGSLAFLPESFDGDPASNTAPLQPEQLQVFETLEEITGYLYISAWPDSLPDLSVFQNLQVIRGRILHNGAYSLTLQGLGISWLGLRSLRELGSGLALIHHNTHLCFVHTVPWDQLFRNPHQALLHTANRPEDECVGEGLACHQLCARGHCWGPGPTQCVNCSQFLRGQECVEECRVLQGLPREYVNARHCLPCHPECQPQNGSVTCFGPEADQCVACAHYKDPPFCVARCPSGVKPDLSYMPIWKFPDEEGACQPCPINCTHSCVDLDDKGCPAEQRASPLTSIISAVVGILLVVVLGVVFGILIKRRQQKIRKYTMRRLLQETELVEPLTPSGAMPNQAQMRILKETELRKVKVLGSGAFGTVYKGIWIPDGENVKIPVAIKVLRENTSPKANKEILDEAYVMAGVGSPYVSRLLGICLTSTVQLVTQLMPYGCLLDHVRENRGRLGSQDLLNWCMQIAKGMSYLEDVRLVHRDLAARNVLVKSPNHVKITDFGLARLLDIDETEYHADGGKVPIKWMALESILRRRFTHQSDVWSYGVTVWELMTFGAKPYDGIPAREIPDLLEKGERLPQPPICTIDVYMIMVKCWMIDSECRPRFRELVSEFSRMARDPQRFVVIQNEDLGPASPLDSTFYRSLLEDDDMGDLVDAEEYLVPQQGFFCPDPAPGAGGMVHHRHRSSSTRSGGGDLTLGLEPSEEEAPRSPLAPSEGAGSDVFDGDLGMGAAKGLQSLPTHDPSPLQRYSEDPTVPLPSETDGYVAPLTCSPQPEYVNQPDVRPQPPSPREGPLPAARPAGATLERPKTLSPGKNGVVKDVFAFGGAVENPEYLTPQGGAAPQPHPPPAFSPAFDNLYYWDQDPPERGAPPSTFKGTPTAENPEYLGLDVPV
The target of test [7] is Platelet-derived growth factor receptor alpha (Homo sapiens, UniProt P16234). The experiment in a line: Selectivity interaction (Kinase panel (Invitrogen)) EUB0000639a PDGFRA. Conditions: at 200 nM.
Sequence of Platelet-derived growth factor receptor alpha (P16234 whole entry): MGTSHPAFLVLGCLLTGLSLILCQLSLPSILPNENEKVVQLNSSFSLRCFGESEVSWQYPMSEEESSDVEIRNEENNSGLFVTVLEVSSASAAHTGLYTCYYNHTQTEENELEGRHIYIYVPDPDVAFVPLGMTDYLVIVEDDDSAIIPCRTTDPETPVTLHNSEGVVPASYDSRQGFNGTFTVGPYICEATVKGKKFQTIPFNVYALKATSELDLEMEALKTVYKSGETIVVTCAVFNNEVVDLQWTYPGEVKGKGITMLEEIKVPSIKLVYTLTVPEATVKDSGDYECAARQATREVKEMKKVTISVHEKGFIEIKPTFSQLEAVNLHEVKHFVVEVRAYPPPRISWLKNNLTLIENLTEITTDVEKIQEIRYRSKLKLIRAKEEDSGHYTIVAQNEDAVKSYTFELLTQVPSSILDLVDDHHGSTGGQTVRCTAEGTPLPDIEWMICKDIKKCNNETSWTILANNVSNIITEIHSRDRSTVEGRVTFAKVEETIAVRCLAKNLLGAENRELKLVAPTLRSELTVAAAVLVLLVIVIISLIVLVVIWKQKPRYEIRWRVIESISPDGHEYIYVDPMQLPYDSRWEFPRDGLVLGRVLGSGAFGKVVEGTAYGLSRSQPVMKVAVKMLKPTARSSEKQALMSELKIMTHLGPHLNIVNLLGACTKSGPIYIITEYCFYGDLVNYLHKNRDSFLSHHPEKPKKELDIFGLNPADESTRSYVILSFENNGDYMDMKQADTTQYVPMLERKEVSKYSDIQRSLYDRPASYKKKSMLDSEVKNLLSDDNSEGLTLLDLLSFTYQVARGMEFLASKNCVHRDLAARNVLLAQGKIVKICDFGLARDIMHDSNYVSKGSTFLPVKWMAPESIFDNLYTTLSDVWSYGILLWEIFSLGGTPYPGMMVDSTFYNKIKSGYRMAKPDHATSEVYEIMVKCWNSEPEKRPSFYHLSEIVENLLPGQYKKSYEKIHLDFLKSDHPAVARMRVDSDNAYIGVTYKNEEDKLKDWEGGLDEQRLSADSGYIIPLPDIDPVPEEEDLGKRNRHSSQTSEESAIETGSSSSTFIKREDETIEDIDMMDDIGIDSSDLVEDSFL
The target in test [8] is Mitogen-activated protein kinase 3 (Homo sapiens, UniProt P27361). The experiment in a line: Selectivity interaction (Kinase panel (KiNativ target engagement assay in Jurkat cells)) EUB0001635a MAPK3. The test is classed as cell-based. Conditions: Selectivity number of off-targets 0.0, Selectivity number of targets 233.0, Source Knowledge https://www.sciencedirect.com/science/article/pii/S2451945619300674?via%3Dihub, at 1 µM.
Sequence of Mitogen-activated protein kinase 3 (P27361 whole entry): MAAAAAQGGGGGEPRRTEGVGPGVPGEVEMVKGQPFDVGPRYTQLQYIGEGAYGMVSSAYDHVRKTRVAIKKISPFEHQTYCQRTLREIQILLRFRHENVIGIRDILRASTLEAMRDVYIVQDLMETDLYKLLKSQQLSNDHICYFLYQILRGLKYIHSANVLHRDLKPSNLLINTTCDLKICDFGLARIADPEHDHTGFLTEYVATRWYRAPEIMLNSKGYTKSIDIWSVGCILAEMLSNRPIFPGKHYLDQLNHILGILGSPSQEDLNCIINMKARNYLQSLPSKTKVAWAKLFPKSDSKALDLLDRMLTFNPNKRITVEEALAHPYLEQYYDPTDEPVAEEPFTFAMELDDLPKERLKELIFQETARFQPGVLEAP

Sequence of Ephrin type-A receptor 2 (Homo sapiens) (P29317 whole entry): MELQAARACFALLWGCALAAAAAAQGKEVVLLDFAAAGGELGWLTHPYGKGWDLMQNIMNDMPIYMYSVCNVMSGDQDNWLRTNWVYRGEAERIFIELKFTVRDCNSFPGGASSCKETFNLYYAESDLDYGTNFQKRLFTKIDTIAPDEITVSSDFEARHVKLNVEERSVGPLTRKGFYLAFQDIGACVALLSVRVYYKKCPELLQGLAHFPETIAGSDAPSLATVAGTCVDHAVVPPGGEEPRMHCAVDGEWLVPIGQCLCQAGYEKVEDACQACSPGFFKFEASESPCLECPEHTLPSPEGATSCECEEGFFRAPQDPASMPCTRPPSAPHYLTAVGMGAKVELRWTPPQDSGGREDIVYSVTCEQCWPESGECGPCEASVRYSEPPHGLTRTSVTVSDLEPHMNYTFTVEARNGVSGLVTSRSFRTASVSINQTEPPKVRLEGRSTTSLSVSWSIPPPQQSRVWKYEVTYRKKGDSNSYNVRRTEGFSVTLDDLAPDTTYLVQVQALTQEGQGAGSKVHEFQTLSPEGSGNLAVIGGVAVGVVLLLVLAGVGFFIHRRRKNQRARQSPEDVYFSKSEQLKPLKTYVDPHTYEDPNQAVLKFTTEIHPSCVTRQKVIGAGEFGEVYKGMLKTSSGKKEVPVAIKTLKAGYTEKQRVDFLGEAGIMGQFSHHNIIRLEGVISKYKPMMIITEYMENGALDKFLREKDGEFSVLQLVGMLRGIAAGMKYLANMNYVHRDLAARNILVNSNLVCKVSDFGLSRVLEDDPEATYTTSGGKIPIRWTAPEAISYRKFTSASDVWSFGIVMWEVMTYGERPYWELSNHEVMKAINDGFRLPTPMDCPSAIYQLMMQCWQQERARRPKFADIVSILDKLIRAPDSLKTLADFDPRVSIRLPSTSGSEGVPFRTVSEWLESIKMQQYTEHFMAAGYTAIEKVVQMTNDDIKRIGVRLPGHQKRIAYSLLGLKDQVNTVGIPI

Turning to `CN(C)C/C=C/C(=O)Nc1ccc(C(=O)N2CCCC(Nc3ncc(Cl)c(-c4c[nH]c5ccccc45)n3)C2)cc1` (centres undefined), the % of control came to 98% in test [1] and 95% in test [2].
Turning to `CCC(=O)N1CCN(c2ccc(-n3c(=O)ccc4cnc5ccc(-c6cnc7ccccc7c6)cc5c43)cc2C(F)(F)F)CC1`, the % of control in test [3] amounted to 30%.
In test [4], `Cc1cc(F)c(C(=O)Nc2cccc(-c3nncn3C(C)C)n2)cc1-n1cnc(C2CC2)c1` gave a % of control of 8.7%.
For the compound `C=CC(=O)Nc1cc(-n2c(=O)ccc3cnc4ccc(-c5ccc(NS(C)(=O)=O)cc5)cc4c32)ccc1C`, the % of control stood at 45% in test [5] (at 1 µM) and 0% in test [5] (at 10 µM).
For `Cn1cc(-n2cnc3c(NCc4nc5cc(Cl)c(Cl)cc5[nH]4)nc(N4CCOCC4)nc32)cn1`, in test [6], the % of inhibition was 2.6%.
With `CC[C@@H]1[C@H](F)C(=O)N[C@@H]1COc1nccc2cc(C(N)=O)c(OC)cc12` [ZIMLOVISERTIB], the % of inhibition in test [7] is -1.69%.
For the compound `C=CC(=O)Nc1ccc(C(=O)Nc2[nH]nc3c2CN(C(=O)N[C@H](CN(C)C)c2ccccc2)C3(C)C)cc1`, the % of engagement in test [8] was -1.4%.
